This test deals with T1, ATP9A (Homo sapiens, UniProt O75110).
T1 construct: N-terminal region before Pro38 deleted; N-terminal His6-EGFP tag cut off with HRV-3C; HEK293S GnT1- (BacMam); LMNG/GDN micelles; monomer, about 90 kDa
T1 sequence (O75110 38-1047): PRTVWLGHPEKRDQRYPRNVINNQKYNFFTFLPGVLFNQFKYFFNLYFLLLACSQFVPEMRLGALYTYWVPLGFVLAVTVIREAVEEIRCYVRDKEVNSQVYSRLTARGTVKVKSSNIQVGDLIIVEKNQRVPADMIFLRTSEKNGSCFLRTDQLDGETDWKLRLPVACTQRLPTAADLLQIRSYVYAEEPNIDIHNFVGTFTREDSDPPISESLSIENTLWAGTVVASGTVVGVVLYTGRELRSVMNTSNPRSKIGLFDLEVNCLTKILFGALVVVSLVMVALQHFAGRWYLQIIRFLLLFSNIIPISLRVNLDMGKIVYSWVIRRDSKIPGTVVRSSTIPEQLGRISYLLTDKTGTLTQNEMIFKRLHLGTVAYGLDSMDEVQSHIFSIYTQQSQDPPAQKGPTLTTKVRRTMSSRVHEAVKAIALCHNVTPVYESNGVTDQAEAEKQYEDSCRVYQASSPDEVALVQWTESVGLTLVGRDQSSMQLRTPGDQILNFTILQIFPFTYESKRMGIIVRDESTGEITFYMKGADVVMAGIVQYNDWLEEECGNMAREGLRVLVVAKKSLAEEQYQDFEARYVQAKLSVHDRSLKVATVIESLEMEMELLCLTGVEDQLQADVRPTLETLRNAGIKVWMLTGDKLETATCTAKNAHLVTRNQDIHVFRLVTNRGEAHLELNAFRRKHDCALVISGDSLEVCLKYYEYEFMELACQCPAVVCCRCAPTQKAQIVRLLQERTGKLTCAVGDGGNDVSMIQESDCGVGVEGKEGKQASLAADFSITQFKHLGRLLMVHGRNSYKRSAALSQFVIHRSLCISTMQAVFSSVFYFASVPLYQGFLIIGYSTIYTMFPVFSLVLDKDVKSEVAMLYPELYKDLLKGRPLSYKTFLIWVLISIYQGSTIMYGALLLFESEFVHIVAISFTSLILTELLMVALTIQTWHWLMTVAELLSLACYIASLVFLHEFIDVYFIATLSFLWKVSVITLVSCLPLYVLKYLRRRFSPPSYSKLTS
The test is described as follows: cryo-EM structure. Type of test: binding.

On to `[F][Be-]([F])[F]` [BeF], for which the cryo-EM structure result (phosphate analog bound at catalytic Asp391, E2P state, open (9VDK, 2.18 Å) and closed (9VDL, 2.31 Å) forms, made from 1 mM BeSO4 and 3 mM NaF, also used as ATPase blank) was “The phosphate analog BeF is bound to the catalytic Asp391”. `CC(C)CCC[C@@H](C)[C@H]1CC[C@H]2[C@@H]3CC=C4C[C@@H](O)CC[C@]4(C)[C@H]3CC[C@]12C` [CLR, cholesterol]: the cryo-EM structure entry (open form, E2P BeF state, lipid modelled from density, not added, outside canonical phospholipid site) is “Bound phospholipids (PLs) and cholesterol (CLR) in the open form are indicated”.
